Measurements: US20180110824A1, “Macrocyclic Modulators of the Ghrelin Receptor” (Ocera Therapeutics, Inc., priority 2016, published 2018)
Like-named read-outs stand apart in the source and are kept apart here.

Molecular target: T1, human ghrelin receptor (hGHS-R1a) (Homo sapiens, UniProt Q92847)
T1 construct: host or cells: CHO-K1 co-expressing Gα16 and mitochondrially targeted aequorin
Assay: Aequorin functional assay (ghrelin receptor), CHO-K1 cells co-expressing Gα16 and aequorin
Type: cell-based
Details: read-out: EC50
Description: This cell line is typically constructed by transfection of the human ghrelin receptor into CHO-K1 cells co-expressing Gα16 and the mitochondrially targeted Aequorin (Ref #ES-WT-A5). • 1. […] Assay buffer: DMEM (Dulbecco's Modified Eagles Medium) containing 0.1% BSA (bovine serum albumin; pH 7.0). • 3. Coelenterazine (Molecular Probes, Leiden, The Netherlands). • Final test concentrations (N=8) for compounds of the invention: 10, 1, 0.3, 0.1, 0.03, 0.01, 0.003, 0.001 μM.
Stock solutions of compounds (10 mM in 100% DMSO) were provided frozen on dry ice and stored at −20° C. prior to use. […] Assay plates were then prepared by appropriate dilution in DMEM medium containing 0.1% BSA. Under these conditions, the maximal final DMSO concentration in the assay was <0.6%.
AequoScreen™ cells were collected from culture plates with Ca^2+ and Mg^2+-free phosphate buffered saline (PBS) supplemented with 5 mM EDTA, pelleted for 2 min at 1000×g re-suspended in DMEM—Ham's F12 containing 0.1% BSA at a density of 5×10^6 cells/mL, and incubated O/N at rt in the presence of 5 μM coelenterazine. After loading, cells were diluted with assay buffer to a concentration of 5×10^5 cells/mL.
For agonist testing, 50 μL of the cell suspension was mixed with 50 μL of the appropriate concentration of test compound or ghrelin (reference agonist) in 96-well plates (duplicate samples). Ghrelin (reference agonist) was tested at several concentrations concurrently with the test compounds in order to validate the experiment. The emission of light resulting from receptor activation in response to ghrelin or test compounds was recorded using the Hamamatsu FDSS 6000 reader (Hamamatsu Photonics K.K., Japan).
Results were expressed as Relative Light Units (RLU). […] EC50, Hill slope and % Emax values are reported.
• 1. Assay performed on CHO-K1 cells expressing the transfected, cloned human ghrelin receptor (hGHS-R1a) and Gα16. • 2. Suspended cells incubated O/N with coelenterazine. • 3. Stimulation of hGHS-R1a activates Gα16, causing […] Ca2+ release which ultimately leads to the oxidation of coelenterazine and the emission of a quantitative luminescent signal. • 4. Ghrelin was used as the positive control. • 5.

T1 sequence (Q92847 whole entry): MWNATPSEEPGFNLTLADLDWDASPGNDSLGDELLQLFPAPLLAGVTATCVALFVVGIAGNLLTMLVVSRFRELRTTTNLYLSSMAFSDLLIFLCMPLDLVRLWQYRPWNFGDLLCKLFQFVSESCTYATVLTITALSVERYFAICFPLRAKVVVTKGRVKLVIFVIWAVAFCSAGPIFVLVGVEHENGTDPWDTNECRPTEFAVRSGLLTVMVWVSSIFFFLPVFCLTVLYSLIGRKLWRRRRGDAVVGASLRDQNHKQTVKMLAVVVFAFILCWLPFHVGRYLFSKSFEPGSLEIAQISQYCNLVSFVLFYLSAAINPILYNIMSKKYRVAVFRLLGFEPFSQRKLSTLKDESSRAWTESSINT

CC1C(=O)NC(Cc2ccc(F)cc2)C(=O)NCCCc2ccccc2O[C@H](C)CNC(C2CC2)C(=O)N1C (some centres unmarked) [compound 298]
EC50 (Table 4, functional (agonist) activity, TFA salts unless otherwise noted): 1 to 100 nM | EC50 (activation of hGHS-R1a, FIG. 11): 25 nM
